Results on 13 compounds are retold here after US20200010413A1, “Benzoquinone derivatives for treatment of cancer and methods of making the benzoquinone derivatives” (United Arab Emirates University, priority 2016, published 2020).

SMILES strings stand for the structures.

Series [1] relates to pancreatic cancer cells (MiaPaCa-2). The experiment in a line: MTT cell viability assay, MiaPaCa-2. The conditions noted are these: for IC50: Homo sapiens, MIA PaCa-2, MiaPaCa-2, 72 hrs. Type of series: cell-based, human. The method, then: (§1) Human cancer cell lines were purchased from Hyclone Laboratories, Utah, USA. Pancreatic cancer cells (L3.6pl and MiaPaCa-2) and breast cancer cells (MCF-7) were maintained in DMEM while lung cancer cells (H1299) and prostate cancer cells (C42B) were maintained in RPMI 1640 media. All media were supplemented with antibiotics (penicillin 50 U/ml; streptomycin 50 μg/ml) and 10% fetal bovine serum (FBS, Biowest, Nouaille, France).
(§2) BQs were tested for their antiprolifrative activity in vitro using MTT assay on human pancreatic cancer cells (L3.6pl and MiaPaCa-2), human lung cancer cells (H1299), human breast cancer cells (MCF-7) and human prostate cancer cells (C42B).
(§3) The cell viability test was conducted by seeding pancreatic (L3.6pl and MiaPaCa-2), lung (H1299), breast (MCF-7) and prostate (C42B) cancer cells into 96-well culture plates at a density of 3×10^3 cells per well. Cells were then exposed to increasing doses (0-25 μM) of BQs for 72 hrs and MTT assay was performed using thymoquinone as a positive control in all experiments. The results were plotted as means±SD of at least three separate experiments using six determinations per experiment. Data were presented as proportional viability (%) by comparing the treated group with the untreated cells whose viability is assumed to be 100%. IC50s of the BQs were estimated from the linear plots of concentrations versus cell viabilities.
For orientation: Tetrazolium dyes change colour on reduction, which living cells bring about.

In series [2] the test system is lung cancer cells (H1299). The experiment in a line: MTT cell viability assay, H1299. It counts as cell-based, human. The conditions noted are these: for inhibition in cell viability: H1299, 72 hours, BQs 1.0-25.0 μM, relative to control (DMSO). The method, then:
as §1, §2, §3

Series [3] deals with prostate cancer cells (C42B). The experiment in a line: MTT cell viability assay, C42B. It counts as cell-based, human. The conditions noted are these: for loss of cell viability: 72 hours, BQs 1.0-25.0 μM, relative to control (DMSO); for IC50: Homo sapiens, 72 hrs. The method, then: as §1, §2, §3
The subject of series [4] is telomeric G-quadruplex DNA. The experiment in a line: Melting temperature curves by CD, G-quadruplex-BQs complexes. It counts as binding, human. The conditions noted are these: for Tm of G-quadruplex-BQ complex / ΔTm of G-quadruplex-BQ complex: CD, equimolar BQ, Tris-KCl buffer pH 7.4; for selectivity towards G-quadruplex over ct-DNA: from differences between ΔTm (G-quadruplex) and ΔTm (ct-DNA). The method, then:
(§4) Melting temperature curves for telomere G-quadruplex, ct-DNA and their BQs' adducts were constructed using CD spectral measurements. A 1.0 ml telomeric G-quadruplex (3.93×10^−6 M) or ct-DNA (100.00 ppm) in Tris-KCl-buffer, pH 7.4 was heated in the range 25-95° C. applying 2.0-5.0° C. increments and using 5 min incubation time intervals. The CD spectra in the range 200-400 nm were recorded at each temperature using the scan parameters described in previous section. BQs complexes with G-quadruplex or ct-DNA were prepared by mixing equimolar amounts of G-quadruplex (1.44×10^−4 M) with BQs (1×10^−4 M) or ct-DNA (1000 ppm) with BQs (1×10^−4 M) solution in 1.0 ml KCl-buffer pH 7.4. Solutions were incubated for 30 min before scan. Collected CD spectra were smoothed and baseline corrected against blank solution. Intensities of CD peaks for G-quadruplex, ct-DNA and their BQs' complexes at 293 and 282 nm were recorded. Plots of CD intensities versus temperature were constructed.

For series [5], the system named is pancreatic cancer cells (L3.6pl). The experiment in a line: MTT cell viability assay, L3.6pl. Type of series: cell-based, human. On the procedure: as §1, §2, §3
In series [6] the test system is examined cancer cell lines. The experiment in a line: MTT cell viability assay, cell line not given (panel). It counts as cell-based. The conditions noted are these: Homo sapiens; cell line not specified. On the procedure:
as §1, §2, §3

For a further series, the system named is ct-DNA (calf thymus DNA). The experiment in a line: Melting temperature curves by CD, ct-DNA-BQs complexes. Type of series: binding. The conditions noted are these: Tris-KCl buffer pH 7.4. On the procedure:
Calf thymus ds-DNA (1000 μg/ml; 8×10^−8 M) was prepared by dissolving 10.0 mg of DNA into 10.0 ml Tris-KCl buffer, pH 7.4, without sonication or stirring. To prevent shearing of the large genomic DNA, the solution was gently inverted overnight at 4.0° C. to completely solubilize the DNA. Solutions of DNA are stable for several months at 4.0° C. in Tris-KCl buffer pH 7-8.
as §4, with “scan.” for “scan. Collected CD spectra were smoothed and baseline corrected against blank solution. Intensities of CD peaks for G-quadruplex, ct-DNA and their BQs' complexes at 293 and 282 nm were recorded. Plots of CD intensities versus temperature were constructed.”
Collected CD spectra were smoothed and baseline corrected against blank solution. Intensities of CD peaks for G-quadruplex, ct-DNA and their BQs' complexes at 293 and 282 nm were recorded. Plots of CD intensities versus temperature were constructed.

The test system of series [7] is breast cancer cells (MCF-7). The experiment in a line: MTT cell viability assay, MCF-7. It counts as cell-based, human. The conditions noted are these: for loss of cell viability: MCF-7, 72 hours, BQs 1.0-25.0 μM, relative to control (DMSO). The method, then:
as §1, §2, §3

The test system of series [8] is telomeric G-quadruplex DNA AGGG(TTAGGG)3. The experiment in a line: UV-Vis absorption titration, Scatchard plot and molar ratio method. It counts as binding, human. The conditions noted are these: Scatchard plot of UV-Vis titration, Tris-KCl buffer pH 7.4. The method, then: Telomeric G-quadruplex DNA was prepared by heating gently 2.0 ml of stock single stranded 5′-[…]-3′ DNA (SEQ ID NO: 1) up to 95.0° C. Resultant solution was incubated at 95.0° C. for 10 min. The solution was left to cool gently down to room temperature, then kept in fridge at 4.0° C. overnight before use. A 10^−5 M fluorescein labeled G-quadruplex DNA was prepared similarly using 5′-Flu-telomeric DNA.
Successive amounts of G-quadruplex DNA (AGGG(TTAGGG)3, 1.44×10^−4 M) were added to 1.00 ml of each BQ (5×10^−6 M) in Tris-KCl buffer, pH 7.4. Solution was shacked well after each addition, incubated for 3 min at room temperature and its absorbance was scanned in the range 200-600 nm. Titration was stopped when no change in absorbance was observed. The experiment was reversed by adding successive amounts of the each BQ (1×10^−3 M) to 1.0 ml of 4×10^−6 M G-quadruplex DNA.
The molar ratio method based on measuring UV-Vis absorption was used for determining stoichiometry of G-quadruplex DNA interactions with BQs. A 1.00 ml BQs (5×10^−6 M) was titrated with telomere G-quadruplex (1.44×10^−4 M) in Tris-KCl buffer, pH 7.4. […] A plot of absorbance versus molar ratio [BQs]/[DNA] was constructed. […]
where Af, A and Ab are the absorbance at zero addition, after each addition and at saturation, respectively. […]

What is called melting point is the temperature of the solid-liquid transition. A word on the IC50: it is the concentration that inhibits the measured activity by half. Lower therefore signals higher potency.

As to `O=C1C=C(NCCN2CCOCC2)C(=O)C=C1NCCN1CCOCC1` [BQ7, 2,5-bis((2-morpholinoethyl)amino)-1,4-benzoquinone], the melting point fell in the range of 184 to 188 °C. For the same compound, the “loss in cell viability” value in [1] (MiaPaCa-2, 72 hours, BQs 1.0-25.0 μM, relative to control (DMSO)) worked out at 7.53%. The “inhibition in cell viability” value in series [2] turned out to be 20.81%. For the same compound, the “loss of cell viability” value in series [3] is 1.29%.
`O=C1C=C(Nc2cc(F)c(F)c(F)c2)C(=O)C=C1Nc1cc(F)c(F)c(F)c1` [BQ2, 2,5-bis-(3,4,5-trifluoroanilino)-1,4-benzoquinone] returned a melting point greater than 350 °C.
With `O=C1C=C(NCc2ccc(F)cc2)C(=O)C=C1NCc1ccc(F)cc1` [BQ11, 2,5-bis-(4-fluorobenzylamino)-1,4-benzoquinone], the melting point is 248 to 250 °C. The “Tm of G-quadruplex-BQ complex” value in series [4] is on record as “lowest”. The compound further registered an IC50 in [5] (Homo sapiens, 72 hrs) of 9.67 µM. The IC50 in series [1] was determined as 6.18 µM. In addition, the IC50 in [6] was less than 10 µM.
For `COc1ccc(NC2=CC(=O)C(Nc3ccc(OC)cc3)=CC2=O)cc1` [BQ3, 2,5-bis-(4-methoxylanilino)-1,4-benzoquinone], the melting point was in the range of 323 to 325 °C. Moreover, the “selectivity towards G-quadruplex over ct-DNA” value in series [4] is on record as “low selectivity”. In addition, in [4] (stabilized both G-quadruplex and ct-DNA), the “ΔTm, G-quadruplex versus ct-DNA” value is roughly 0.2 °C. Moreover, the “Melting temperature shift (ΔTm) of ct-DNA on BQ binding” value with ct-DNA (calf thymus DNA) worked out at 3.8 °C. In series [1], this compound had an IC50 of 7.68 µM.
On to `O=C1C=C(NCc2ccc(C(F)(F)F)cc2)C(=O)C=C1NCc1ccc(C(F)(F)F)cc1` [BQ10, 2,5-bis-(4-trifluoromethylbenzylamino)-1,4-benzoquinone], for which the melting point fell in the range of 271 to 274 °C. In series [7] (Homo sapiens, MCF7, MCF-7, 72 hrs), this compound returned an IC50 of 8.04 µM. In addition, the IC50 in series [6] is less than 10 µM.
In the case of `O=C1C=C(Nc2ccccc2)C(=O)C=C1Nc1ccccc1` [BQ5, 2,5-bis-anilino-1,4-benzoquinone], the melting point was in the range of 342 to 345 °C. The “selectivity towards G-quadruplex over ct-DNA” value in series [4] (listed as BQS) was 3.5 folds. Moreover, in series [3], the “loss of cell viability” value is given as 27.25% and the IC50 was found to be 42.1 µM.
`O=C1C=C(NCc2cc(C(F)(F)F)cc(C(F)(F)F)c2)C(=O)C=C1NCc1cc(C(F)(F)F)cc(C(F)(F)F)c1` [BQ14, 2,5-bis-(3,5-ditrifluoromethylbenzylamino)-1,4-benzoquinone] gave a melting point of 237 to 239 °C.
The same measure, in the same setting: as for `O=C1C=C(NCc2ccccc2)C(=O)C=C1NCc1ccccc1` [BQ13, 2,5-bis-(benzylamino)-1,4-benzoquinone], the figure is 254.5 to 256 °C.
The compound `COc1ccc(CNC2=CC(=O)C(NCc3ccc(OC)c(OC)c3)=CC2=O)cc1OC` [BQ12, 2,5-bis-(3,4-dimethoxybenzylamino)-1,4-benzoquinone] gave a melting point of 256.5 to 258.5 °C. Further, the “loss of cell viability” value in series [7] came to 24.16%.
`O=C1C=C(Nc2cccc(C(F)(F)F)c2)C(=O)C=C1Nc1cccc(C(F)(F)F)c1` [BQ1, 2,5-bis-(3-trifluoromethylanilino)-1,4-benzoquinone] returned a melting point of 280 to 282.5 °C. Besides, the “binding constant (K) towards G-quadruplex DNA” value in series [8] turned out to be 728000 M⁻¹. In series [4], the “Tm of G-quadruplex-BQ complex” value was 75.5 °C and the “ΔTm of G-quadruplex-BQ complex” value turned out to be 7.5 °C. The “Melting temperature shift (ΔTm) of ct-DNA on BQ binding” value in the series with ct-DNA (calf thymus DNA) turned out to be 5.8 °C. The IC50 in series [3] stood at 43.2 µM.
`O=C1C=C(Nc2ccc(F)cc2)C(=O)C=C1Nc1ccc(F)cc1` [BQ4, 2,5-bis-(4-fluoroanilino)-1,4-benzoquinone] showed a melting point greater than 350 °C. Besides, in series [4], the “Tm of G-quadruplex-BQ complex” value was 68.1 °C and the “ΔTm of G-quadruplex-BQ complex” value amounted to 0.1 °C. Besides, the IC50 in series [2] (Homo sapiens, NCI-H1299, H1299, 72 hrs) is 7.48 µM.
Compound `O=C1C=C(NC2CCCC2)C(=O)C=C1NC1CCCC1` [BQ8, 2,5-bis-(cyclopentylamino)-1,4-benzoquinone] gave a melting point of 289 to 291 °C. Further, the “inhibition in cell viability” value in [5] (72 hours, BQs 1.0-25.0 μM, relative to control (DMSO)) is 26.97%.
In the case of `O=C1C=C(NCCN2CCCC2)C(=O)C=C1NCCN1CCCC1` [BQ9, 2,5-bis((2-(pyrrolidin-1-yl)ethyl)amino)-1,4-benzoquinone], the melting point lay in the range of 159 to 162 °C. Besides, in [2], the “inhibition in cell viability” value turned out to be 84.40%. In series [7], the “loss of cell viability” value is 92.50%. In series [6], this compound had an IC50 of less than 10 µM.
